# Reference: ChEMBL document CHEMBL1201862, “PubChem BioAssay data set” (2004)
#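 Following 48 hours of exposure in 96-well plates, responses at five concentrations were used to interpolate endpoints linearly. Here, GI50 denotes the concentration required for 50% inhibition of growth.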 Calls of active or inactive are those of the source. Cut-off read from the data, not from the text of the source: active = GI50 up to about 1.1 µM and inactive = higher.
# Key:
# Assay in all cases: inhibition of tumour cell growth, NCI panel, 48 h
# COLO 205 = tested on: COLO 205
# KM-20L2 = tested on: KM-20L2
# KM12 = tested on: KM12
# Malme-3M = tested on: Malme-3M
# HT-29 = tested on: HT-29
# NCI-H23 = tested on: NCI-H23
# CAKI-1 = tested on: CAKI-1
# OVCAR-5 = tested on: OVCAR-5
# OVCAR-3 = tested on: OVCAR-3
# SW-620 = tested on: SW-620
# DLD-1 = tested on: DLD-1
# RXF 393 = tested on: RXF 393
# OVCAR-4 = tested on: OVCAR-4
# SK-OV-3 = tested on: SK-OV-3
# SR = tested on: SR
# 786-0 = tested on: 786-0
# HL-60 = tested on: HL-60
# RPMI-8226 = tested on: RPMI-8226
# CCRF-CEM = tested on: CCRF-CEM
# SF-295 = tested on: SF-295
# SF-539 = tested on: SF-539
# LXFL 529 = tested on: LXFL 529
# EKVX = tested on: EKVX
# HOP-62 = tested on: HOP-62
# HCT-116 = tested on: HCT-116
# NCI-H522 = tested on: NCI-H522
# M14 = tested on: M14
# A549 = tested on: A549
# SK-MEL-28 = tested on: SK-MEL-28
# HOP-92 = tested on: HOP-92
# SNB-19 = tested on: SNB-19
# K562 = tested on: K562
# IGROV-1 = tested on: IGROV-1
# SK-MEL-5 = tested on: SK-MEL-5
# MOLT-4 = tested on: MOLT-4
# HOP-18 = tested on: HOP-18
# SF-268 = tested on: SF-268
# SN12C = tested on: SN12C
# U-251 = tested on: U-251
# M19-MEL = tested on: M19-MEL
# UACC-62 = tested on: UACC-62
# UO-31 = tested on: UO-31
# TK-10 = tested on: TK-10
# OVCAR-8 = tested on: OVCAR-8
# HCT-15 = tested on: HCT-15
# LOX IMVI = tested on: LOX IMVI
# UACC-257 = tested on: UACC-257
# SNB-78 = tested on: SNB-78
# NCI-H460 = tested on: NCI-H460
# DMS-273 = tested on: DMS-273
# DMS-114 = tested on: DMS-114
# SK-MEL-2 = tested on: SK-MEL-2
# HCC 2998 = tested on: HCC 2998
# SNB-75 = tested on: SNB-75
# ACHN = tested on: ACHN
smiles,measurement,setting,value
Cc1nn2c3c(nnc2c1C#N)C(=O)NN=C(N)S3,GI50,COLO 205,> 100 µM (inactive)
same,GI50,KM-20L2,> 100 µM (inactive)
same,GI50,KM12,> 100 µM (inactive)
same,GI50,Malme-3M,> 100 µM (inactive)
same,GI50,HT-29,> 100 µM (inactive)
same,GI50,NCI-H23,> 100 µM (inactive)
same,GI50,CAKI-1,> 100 µM (inactive)
same,GI50,OVCAR-5,> 100 µM (inactive)
same,GI50,OVCAR-3,> 100 µM (inactive)
same,GI50,SW-620,> 100 µM (inactive)
same,GI50,DLD-1,> 100 µM (inactive)
same,GI50,RXF 393,> 100 µM (inactive)
same,GI50,OVCAR-4,> 100 µM (inactive)
same,GI50,SK-OV-3,> 100 µM (inactive)
same,GI50,SR,> 100 µM (inactive)
same,GI50,786-0,> 100 µM (inactive)
same,GI50,HL-60,> 100 µM (inactive)
same,GI50,RPMI-8226,> 100 µM (inactive)
same,GI50,CCRF-CEM,> 100 µM (inactive)
same,GI50,SF-295,> 100 µM (inactive)
same,GI50,SF-539,> 100 µM (inactive)
same,GI50,LXFL 529,> 100 µM (inactive)
same,GI50,EKVX,> 100 µM (inactive)
same,GI50,HOP-62,> 100 µM (inactive)
same,GI50,HCT-116,> 100 µM (inactive)
same,GI50,NCI-H522,> 100 µM (inactive)
same,GI50,M14,> 100 µM (inactive)
same,GI50,A549,> 100 µM (inactive)
same,GI50,SK-MEL-28,> 100 µM (inactive)
same,GI50,HOP-92,> 100 µM (inactive)
same,GI50,SNB-19,> 100 µM (inactive)
same,GI50,K562,> 100 µM (inactive)
same,GI50,IGROV-1,> 100 µM (inactive)
same,GI50,SK-MEL-5,> 100 µM (inactive)
same,GI50,MOLT-4,> 100 µM (inactive)
same,GI50,HOP-18,> 100 µM (inactive)
same,GI50,SF-268,> 100 µM (inactive)
same,GI50,SN12C,> 100 µM (inactive)
same,GI50,U-251,> 100 µM (inactive)
same,GI50,M19-MEL,> 100 µM (inactive)
same,GI50,UACC-62,> 100 µM (inactive)
same,GI50,UO-31,> 100 µM (inactive)
same,GI50,TK-10,> 100 µM (inactive)
same,GI50,OVCAR-8,> 100 µM (inactive)
COc1ccc(-n2cnnc2-c2nsc3ccccc23)cc1,GI50,COLO 205,> 100 µM (inactive)
same,GI50,KM-20L2,> 100 µM (inactive)
same,GI50,KM12,95.1 µM (inactive)
same,GI50,HT-29,92.5 µM (inactive)
same,GI50,NCI-H23,95.3 µM (inactive)
same,GI50,OVCAR-5,> 100 µM (inactive)
same,GI50,HCT-15,51.6 µM
same,GI50,OVCAR-3,51.4 µM (inactive)
same,GI50,SW-620,> 100 µM (inactive)
same,GI50,RXF 393,12.4 µM (inactive)
same,GI50,OVCAR-4,> 100 µM (inactive)
same,GI50,SR,> 100 µM (inactive)
same,GI50,HL-60,78 µM (inactive)
same,GI50,RPMI-8226,60 µM (inactive)
same,GI50,CCRF-CEM,> 100 µM (inactive)
same,GI50,SF-539,23.4 µM (inactive)
same,GI50,LXFL 529,> 100 µM (inactive)
same,GI50,EKVX,> 100 µM (inactive)
same,GI50,HOP-62,94.8 µM (inactive)
same,GI50,HCT-116,> 100 µM (inactive)
same,GI50,M14,> 100 µM (inactive)
same,GI50,A549,> 100 µM (inactive)
same,GI50,SK-MEL-28,78.2 µM (inactive)
same,GI50,LOX IMVI,> 100 µM (inactive)
same,GI50,UACC-257,> 100 µM (inactive)
same,GI50,SNB-78,> 100 µM (inactive)
same,GI50,NCI-H460,> 100 µM (inactive)
same,GI50,HOP-92,45.1 µM (inactive)
same,GI50,DMS-273,44.7 µM (inactive)
same,GI50,DMS-114,> 100 µM (inactive)
same,GI50,SNB-19,> 100 µM (inactive)
same,GI50,K562,90.6 µM (inactive)
same,GI50,IGROV-1,> 100 µM (inactive)
same,GI50,SK-MEL-5,> 100 µM (inactive)
same,GI50,SK-MEL-2,> 100 µM (inactive)
same,GI50,HCC 2998,> 100 µM (inactive)
same,GI50,MOLT-4,> 100 µM (inactive)
same,GI50,HOP-18,36.6 µM (inactive)
same,GI50,SNB-75,22.2 µM (inactive)
same,GI50,SF-268,75.3 µM (inactive)
same,GI50,SN12C,99.8 µM (inactive)
same,GI50,U-251,> 100 µM (inactive)
same,GI50,M19-MEL,> 100 µM (inactive)
same,GI50,UACC-62,> 100 µM (inactive)
same,GI50,ACHN,90.6 µM (inactive)
same,GI50,UO-31,> 100 µM (inactive)
same,GI50,TK-10,> 100 µM (inactive)
same,GI50,OVCAR-8,> 100 µM (inactive)
CC1(C)Cc2nnsc2C2=C1C(=O)CCS2,GI50,COLO 205,> 100 µM (inactive)
same,GI50,KM-20L2,> 100 µM (inactive)
same,GI50,KM12,> 100 µM (inactive)
same,GI50,Malme-3M,> 100 µM (inactive)
same,GI50,HT-29,> 100 µM (inactive)
same,GI50,NCI-H23,> 100 µM (inactive)
same,GI50,CAKI-1,> 100 µM (inactive)
same,GI50,OVCAR-5,> 100 µM (inactive)
same,GI50,HCT-15,> 100 µM
same,GI50,OVCAR-3,> 100 µM (inactive)
same,GI50,SW-620,> 100 µM (inactive)
same,GI50,DLD-1,> 100 µM (inactive)
same,GI50,RXF 393,> 100 µM (inactive)
same,GI50,OVCAR-4,> 100 µM (inactive)
same,GI50,SK-OV-3,> 100 µM (inactive)
same,GI50,786-0,> 100 µM (inactive)
same,GI50,HL-60,> 100 µM (inactive)
same,GI50,RPMI-8226,> 100 µM (inactive)
same,GI50,CCRF-CEM,> 100 µM (inactive)
same,GI50,SF-295,> 100 µM (inactive)
same,GI50,SF-539,> 100 µM (inactive)
same,GI50,LXFL 529,> 100 µM (inactive)
same,GI50,EKVX,> 100 µM (inactive)
same,GI50,HOP-62,> 100 µM (inactive)
same,GI50,NCI-H522,> 100 µM (inactive)
same,GI50,M14,> 100 µM (inactive)
same,GI50,A549,> 100 µM (inactive)
same,GI50,SK-MEL-28,> 100 µM (inactive)
same,GI50,LOX IMVI,> 100 µM (inactive)
same,GI50,UACC-257,> 100 µM (inactive)
same,GI50,NCI-H460,> 100 µM (inactive)
same,GI50,HOP-92,32.7 µM (inactive)
same,GI50,DMS-273,> 100 µM (inactive)
same,GI50,DMS-114,> 100 µM (inactive)
same,GI50,SNB-19,> 100 µM (inactive)
same,GI50,K562,> 100 µM (inactive)
same,GI50,IGROV-1,> 100 µM (inactive)
same,GI50,SK-MEL-5,> 100 µM (inactive)
same,GI50,SK-MEL-2,> 100 µM (inactive)
same,GI50,HCC 2998,> 100 µM (inactive)
same,GI50,MOLT-4,> 100 µM (inactive)
same,GI50,HOP-18,> 100 µM (inactive)
same,GI50,SNB-75,24 µM (inactive)
same,GI50,SF-268,> 100 µM (inactive)
same,GI50,SN12C,> 100 µM (inactive)
same,GI50,U-251,60.4 µM (inactive)
same,GI50,UACC-62,> 100 µM (inactive)
same,GI50,ACHN,> 100 µM (inactive)
same,GI50,UO-31,> 100 µM (inactive)
same,GI50,TK-10,> 100 µM (inactive)
same,GI50,OVCAR-8,> 100 µM (inactive)
